Assay results: ChEMBL document CHEMBL3351326, “Discovery of substituted 6-pheny-3H-pyridazin-3-one derivatives as novel c-Met kinase inhibitors” (Bioorg Med Chem Lett, 2014)

Assays:
[1] = tested on: NCI-H1993; assay: Cytotoxicity against human NCI-H1993 cells after 72 hrs by WST8 assay; settings: NCI-H1993, 72 h
[2] = Cytotoxicity against human NCI-H3122 cells after 72 hrs by WST8 assay; settings: NCI-H3122, 72 h
[3] = Cytotoxicity against human U87MG cells after 72 hrs by WST8 assay; format: functional, cell-based, U-87MG ATCC; settings: U-87 MG
[4] = cells; settings: Homo sapiens, Hs746T, 72 h
Description: Cytotoxicity against human Hs 746T cells after 72 hrs by WST8 assay

Row | SMILES | IC50 [1] [µM] | IC50 [2] [µM] | IC50 [3] [µM] | IC50 [4] [µM]
1 | O=c1ccc(-c2ccc(F)c(Cl)c2)nn1C[C@@H]1CN(c2ncc(-c3cnn(C4CCNCC4)c3)cn2)CCO1 | 0.79 | 1.7 | 1.2 | 0.071
2 | Cn1cc(-c2cnc(N3CCO[C@H](Cn4nc(-c5ccc(OCc6ccccc6)cc5)ccc4=O)C3)nc2)cn1 | 4.1 | > 10 | 7.6 | 3.02
3 | N#Cc1cccc(-c2ccc(=O)n(C[C@@H]3CN(c4ncc(-c5cnn(C6CCNCC6)c5)cn4)CCO3)n2)c1 | 0.11 | > 10 | > 10 | 0.0012
4 | O=c1ccc(-c2cc(F)cc(F)c2)nn1C[C@@H]1CN(c2ncc(-c3cnn(C4CCNCC4)c3)cn2)CCO1 | 1.6 | 1.9 | 3.2 | 0.45
5 | O=c1ccc(-c2cccc(Cl)c2)nn1C[C@@H]1CN(c2ncc(-c3cnn(C4CCNCC4)c3)cn2)CCO1 | 3.4 | > 10 | 9.9 | 0.75
6 | O=c1ccc(-c2cccc(C(F)(F)F)c2)nn1C[C@@H]1CN(c2ncc(-c3cnn(C4CCNCC4)c3)cn2)CCO1 | 1.3 | 1.4 | 2.5 | 0.084
7 | O=c1ccc(-c2cc(F)c(F)c(F)c2)nn1C[C@@H]1CN(c2ncc(-c3cnn(C4CCNCC4)c3)cn2)CCO1 | 1.2 | 1.5 | 1.5 | 0.23
8 | O=c1ccc(-c2cccc(F)c2)nn1C[C@@H]1CN(c2ncc(-c3cnn(C4CCNCC4)c3)cn2)CCO1 | 3.5 | 7.5 | 4.9 | 0.22
9 | O=c1ccc(-c2cccc(F)c2)nn1C[C@@H]1CN(c2ncc(-c3cnn(C4CCN(CCO)CC4)c3)cn2)CCO1 | 3.2 | 3.3 | 3.4 | 0.46
10 | O=c1ccc(-c2ccc(F)cc2)nn1C[C@@H]1CN(c2ncc(-c3cnn(C4CCN(CCO)CC4)c3)cn2)CCO1 | 3.8 | > 10 | > 10 | 0.28
11 | O=c1ccc(-c2cc(F)c(F)c(F)c2)nn1C[C@@H]1CN(c2ncc(-c3cnn(C4CCN(CCO)CC4)c3)cn2)CCO1 |  | > 10 | 4.07 | 0.19
12 | CN1CCC(n2cc(-c3cnc(N4CCO[C@H](Cn5nc(-c6cccc(F)c6)ccc5=O)C4)nc3)cn2)CC1 | 3.2 | 3.3 | 3.4 | 0.46
13 | CN1CCC(n2cc(-c3cnc(N4CCO[C@H](Cn5nc(-c6cc(F)c(F)c(F)c6)ccc5=O)C4)nc3)cn2)CC1 | 3.6 | 7.6 | 9.1 | 0.48
14 | CN1CCC(n2cc(-c3cnc(N4CCO[C@H](Cn5nc(-c6ccc(F)c(F)c6)ccc5=O)C4)nc3)cn2)CC1 | 5.7 | > 10 | > 10 | 0.94
15 | CN1CCC(n2cc(-c3cnc(N4CCO[C@H](Cn5nc(-c6ccc(F)c(Cl)c6)ccc5=O)C4)nc3)cn2)CC1 | 1.2 | 1.4 | 1.5 | 0.014
16 | Cn1cc(-c2cnc(N3CCO[C@H](Cn4nc(-c5cccc(C#N)c5)ccc4=O)C3)nc2)cn1 | 0.01 | > 1 | > 1 | 0.0007
17 | N#Cc1cccc(-c2ccc(=O)n(C[C@@H]3CN(c4ncc(-c5cnn(CCOC6CCCCO6)c5)cn4)CCO3)n2)c1 (some centres undefined) | 2.6 | > 10 | > 10 | 0.46
18 | N#Cc1cccc(-c2ccc(=O)n(C[C@@H]3CN(c4ncc(-c5cnn(CCO)c5)cn4)CCO3)n2)c1 | 1.5 | > 10 | > 10 | 0.18
19 | CN1CCC(COc2cnc(N3CCO[C@H](Cn4nc(-c5cccc(C#N)c5)ccc4=O)C3)nc2)CC1 | 2.4 | > 10 | > 10 | 0.43
20 | N#Cc1cccc(-c2ccc(=O)n(C[C@@H]3CN(c4ncc(-c5cnn(CC6CCN(CCO)CC6)c5)cn4)CCO3)n2)c1 | 2.1 | > 10 | > 10 | 0.0034
21 | N#Cc1cccc(-c2ccc(=O)n(C[C@@H]3CN(c4ncc(C5=CCNCC5)cn4)CCO3)n2)c1 | 3.8 | > 10 | 9.7 | 0.74
22 | CN1CC=C(c2cnc(N3CCO[C@H](Cn4nc(-c5cccc(C#N)c5)ccc4=O)C3)nc2)CC1 | 4.1 | > 10 | > 10 | 1.2
23 | N#Cc1cccc(-c2ccc(=O)n(C[C@@H]3CN(c4ncc(C5=CCN(CCO)CC5)cn4)CCO3)n2)c1 | 2.5 | > 10 | > 10 | 0.21
24 | N#Cc1cccc(-c2ccc(=O)n(C[C@@H]3CN(c4ncc(-c5ccc(OCCN6CCOCC6)cc5)cn4)CCO3)n2)c1 | 1.8 | > 10 | 3.4 | 0.41
25 | N#Cc1cccc(-c2ccc(=O)n(C[C@@H]3CN(c4ncc(-c5ccc(OCCN6CCOCC6)c(Cl)c5)cn4)CCO3)n2)c1 | 1.2 | > 10 | 1.4 | 1.42
26 | N#Cc1cccc(-c2ccc(=O)n(C[C@@H]3CN(c4ncc(-c5ccnc(F)c5)cn4)CCO3)n2)c1 | 7.4 | > 10 | > 10 | 7.15
27 | CN1CCN(c2ccc(-c3cnc(N4CCO[C@H](Cn5nc(-c6cccc(C#N)c6)ccc5=O)C4)nc3)cn2)CC1 | 1.3 | 1.4 | 1.6 | 0.65
28 | N#Cc1cccc(-c2ccc(=O)n(C[C@@H]3CN(c4ncc(-c5ccc(OCCN6CCOCC6)nc5)cn4)CCO3)n2)c1 | 3.7 | 9.8 |  | 0.74
29 | N#Cc1cccc(-c2ccc(=O)n(C[C@@H]3CN(c4ncc(-c5cnn(C6CCN(C7CCOCC7)CC6)c5)cn4)CCO3)n2)c1 | 0.23 | > 10 | > 10 | 0.013
